Measured values from patent publication US20090186761A1, “Use of bio-derived surfactants for mitigating damage to plants from pests” (Cleareso, LLC, priority 2008, published 2009).
Blank lines part the entries; values can stand above or below the compound they belong to.

Assays:
[1] = system: root weevil, Diaprepes abbreviatus; test: Root weevil larvae held 30 minutes in concentration series of compounds; type: in vivo; settings: for Mortality of larvae: 30 minutes immersion, five larvae; for toxicity to larvae as judged: 0.1 to 5.0%, judged at 24 hours from black residue and activity
Protocol: The criterion for toxicity with these larvae is the lack of nipping behavior and its consequent black residue from blood loss and the lack of spontaneous movement.
Concentration Series. With the results from the time series above, larvae were held in different concentrations of STMB for 30 minutes. After 30 minutes, solutions were poured off and the trays wiped dry. Assessments were made at 24 or 48 hours with a few assessments at 72 hours dependent on effects. Treatments were: water or carbonated water as controls, and 0.1, 0.5, 1.0, 2.0, 3.0, 4.0 and 5.0% concentrations in either distilled water or carbonated water. Five larvae were used for each control and treatment. Pupae were not used in this assessment.
The use of carbonated water appeared not to increase the efficacy of this treatment. After 48 hours, there appeared to be no difference between 5% STMB in water and 5% STMB in carbonated water. […] In general, 48 hours should be enough for this assessment. Lack of toxicity or high toxicity should show in the first 24 hours.

M. javanica = settings: tomato root galling; cited from earlier work
Meloidognye hapla = settings: cited from earlier work; for toxicity to nematodes: in vitro; for kill of second stage juveniles: 50 ppm, 24 hours
[2] = Solubility of the test preparations in water (observations); type: physicochemical

Compound: Polyoxyethylene 10 tridecylether [24938-91-8]
- Mortality of larvae ([1]; 0.1%, 24 hours): 0
- Mortality of larvae ([1]; 0.1%, 48 hours): 0
- Mortality of larvae ([1]; 0.1%, 72 hours): 0
- Mortality of larvae ([1]; 1.0%, 24 hours): 2
- Mortality of larvae ([1]; 1.0%, 48 hours): 2
- Mortality of larvae ([1]; 1.0%, 72 hours): 2
- Mortality of larvae ([1]; 3.0%, 24 hours): 0
- Mortality of larvae ([1]; 3.0%, 48 hours): 0
- Mortality of larvae ([1]; 3.0%, 72 hours): 0
- Mortality of larvae ([1]; 5.0%, 24 hours): 0
- Mortality of larvae ([1]; 5.0%, 48 hours): 3
- Mortality of larvae ([1]; 5.0%, 72 hours): 3

Compound: glycol pelargonate
- concentration producing reduced galling of plants (M. javanica): 6.4 microliters/liter

Compound: CCCCCCCC/C=C\CCCCCCCC(=O)O [Oleic acid]
- toxicity to nematodes (Meloidognye hapla): relatively nontoxic

- solubility of preparation ([2]; 0.1% in water): soluble
- solubility of preparation ([2]; 1.0% in water): just soluble
- solubility of preparation ([2]; 3.0% in water): not soluble
- solubility of preparation ([2]; 5.0% in water): not soluble
Compound: COC(=O)CCC(=O)OC [106-65-0, butanedioic acid, dimethyl ester]
- Mortality of larvae ([1]; 0.1%, 24 hours): 2
- toxicity to larvae as judged [1]: non-toxic
- Mortality of larvae ([1]; 1.0%, 24 hours): 2
- Mortality of larvae ([1]; 3.0%, 24 hours): 1
- Mortality of larvae ([1]; 5.0%, 24 hours): 1

- solubility of preparation ([2]; 0.1% in water): soluble
- solubility of preparation ([2]; 1.0% in water): not completely soluble
- solubility of preparation ([2]; 3.0% in water): not completely soluble
- solubility of preparation ([2]; 5.0% in water): not completely soluble
Compound: COC(=O)CCCCC(=O)OC [627-93-0, Dimethyl hexanedioate]
- Mortality of larvae ([1]; 0.1%, 24 hours): 2
- toxicity to larvae as judged [1]: non-toxic
- Mortality of larvae ([1]; 1.0%, 24 hours): 1
- Mortality of larvae ([1]; 3.0%, 24 hours): 2
- Mortality of larvae ([1]; 5.0%, 24 hours): 3

Compound: CCCCCCCCCC(=O)O [decanoic acid]
- kill of second stage juveniles (Meloidognye hapla): killed all

Compound: COC(=O)CCCC(=O)OC [1119-40-0, pentanedioic acid, dimethyl ester]
- Mortality of larvae ([1]; 0.1%, 48 hours): 3
- Mortality of larvae ([1]; 0.1%, 72 hours): 3
- Mortality of larvae ([1]; 1.0%, 48 hours): 1
- Mortality of larvae ([1]; 1.0%, 72 hours): 2
- Mortality of larvae ([1]; 3.0%, 48 hours): 0
- Mortality of larvae ([1]; 3.0%, 72 hours): 0
- Mortality of larvae ([1]; 5.0%, 48 hours): 1
- Mortality of larvae ([1]; 5.0%, 72 hours): 2
- survival of larvae after 30 minutes ([1]; at end of 30 minutes immersion): All larvae were alive

Compound: CCCCCCCC/C=C\CCCCCCCC(=O)[O-].[K+] [potassium oleate]
- toxicity to nematodes (Meloidognye hapla): relatively nontoxic

Compound: CCCCCCCCCCC(=O)O [undecanoic acid]
- kill of second stage juveniles (Meloidognye hapla): killed all

Compound: CCCCCCCCC(=O)OC [Methyl perlargonate]
- concentration producing reduced galling of plants (M. javanica): 0.8 microliters/liter
